“Also recorded” adds a separate entry of the source. Structures can show the parent of a compound that is named as a salt.
Columns and labels:
mice = assay: Proconvulsant properties of bupropion salts: clonic convulsions in mice; settings: for Mean Number of Convulsions/Mouse / Total Number of convulsions: N=13
Procedure: Number of convulsions and the intensity of the convulsions were recorded.
Mild: Head and tail slightly extended and little jerking; Moderate: Head and tail fully extended with some jerking; Severe: Head and tail fully extended with strong jerking. […] Step 2: To further investigate the patterns of convulsion occurrence using loglinear Poisson regression models. The number of convulsions was analyzed using the loglinear Poisson regression models with formulation, dose, and severity as predictors.

CD-1 mice [1] = assay: cortical EEG and behaviour in mice at convulsive and non-convulsive doses; settings: 150 mg/kg i.p.; for seizure-like behavioural activity over time, second study pair: time after injection
Procedure: Test system: 30 healthy female mice, of strain CD-1, having a bodyweight of 25-29 g, were acclimatized for a minimum period of 4 days and used for this study. Each animal, after allocation to groups, was identified by markings on the dorsal surface of the tail. Environmental conditions included a temperature of 22±3° C., and artificial lighting of 12 hours light/dark cycle. Routine activities such as cleaning, feeding and watering were performed according to the RCSl's current SOPS.
The diluent used was 0.9% sodium chloride solution. Storage temperature was at about 25° C.
Test Item Administration: The test item was administered intraperitoneally using a disposable syringe with a 1 ml syringe and 26 g needle. The route of administration was intraperitoneal.
Protocol: Habituated mice were anesthetized with isofolurane, placed in a stereotaxic frame and maintained normothermic (36-37° C.) by means of a feedback-controlled mouse-designed homeothermic blanket (Harvard Apparatus). Under isoflurane anaesthesia, a midline skill incision was made over the skull and the skull exposed. Three partial craniectomies were performed: one overlying each temporal lobe and a third across the region overlying frontal cortex. Mouse-sized cranial EEG (E363/20, electrode with mounting screw and socket, Plastics One Inc) were affixed at each point. The electrode assembly was affixed to the skull with dental cement and then anaesthesia discontinued and the animal placed in the recording chamber for 30-60 minutes after recovery. Electrodes were then connected to a multichannel 363 Connector Cable system with SL6C 6 channel swivel commutator and baseline EEG recordings commenced using a Grass model Comet Portable 40-channel Digital EEG & Review System with Twin digital EEG in tandem with continuous digital video. […] Mice were run in parallel so that a hydrochloride mouse was injected within minutes of a hydrobromide mouse and recordings made simultaneously. Video-EEG was recorded for a period of one (1) hour. Afterwards, mice were returned to cages and then euthanized at 24 h and brains harvested.
Analysis: The duration of type IV polyspike high frequency (>1 Hz) high amplitude (>2× baseline) was determined for each mouse over the 1 h recording period.

CD-1 mice [2] = assay: clonic convulsions in CD-1 mice after intraperitoneal dosing (range finding and main study)
Procedure: Two studies were performed to investigate the relative proconvulsant properties of the two bupropion salts. In the first instance a range finding study was performed to establish the appropriate dose range for the main study. In each study the mice were divided into two dose groups and injected intraperitoneally with either bupropion HCl or bupropion HBr.
A clonic convulsion was defined as a stiffening of the animal followed by jerking movements. The convulsions were classified as mild, moderate and severe according to the following descriptions.
Mild: Head and tail slightly extended and little jerking
Moderate: Head and tail fully extended with some jerking
Severe: Head and tail fully extended with strong jerking
Post-treatment findings recorded included continuous observation for 120 minutes for evidence of clonic convulsions, and intermittent (fixed) observations for 24 hours for other signs, including tonic convulsions, movement, activity, paralysis, gait and evidence of recovery.

[3] = 150 mg/kg, Moderate, hydrochloride
[4] = 150 mg/kg, Severe, hydrochloride
[5] = 100 mg/kg i.p., pooled data N = 13/dose group, hydrochloride
[6] = 150 mg/kg i.p., pooled data N = 13/dose group, hydrochloride

With `CC(NC(C)(C)C)C(=O)c1cccc(Cl)c1.Cl` (racemic) [bupropion hydrochloride, (±)-1-(3-chlorophenyl)-2-[(1,1-dimethylethyl)amino]-1-propanone hydrochloride] the “Mean Number of Convulsions/Mouse, cumulative” value (mice; 100 mg/kg, All) was 0.23, the “odds of number of convulsions vs the bupropion hydrobromide group” value (mice; loglinear Poisson regression, adjusted for dose and severity) was 1.41 and the “seizure EEG” value (CD-1 mice [1]; n=4 per salt, cortical electrodes, 1 h, listed as HCl, hydrochloride) was “no seizure EEG; also recorded: two very brief EEG bursts; also recorded: brief burst of seizure”. For the same compound, the “seizure-like behavioural activity over time, second study pair” value (CD-1 mice [1]) was “about 30 mins” and the “severity of seizure activity in the initial behavioral study” value (CD-1 mice [2]; CD-1 mice) was “more severe”.
For `CC(NC(C)(C)C)C(=O)c1cccc(Cl)c1` (centres unmarked) [Bupropion HCl, bupropion hydrochloride], the “Mean Number of Convulsions/Mouse, cumulative” value (mice; 100 mg/kg, All, hydrochloride) was 0.23, the “Mean Number of Convulsions/Mouse” value (mice; 100 mg/kg, Mild, hydrochloride) was 0.0 and the “Total Number of convulsions” value (mice; 100 mg/kg, Mild, hydrochloride) was 0. For the same compound, the “Mean Number of Convulsions/Mouse” value (mice; 100 mg/kg, Moderate) was 0.08, the “Total Number of convulsions” value (mice; 100 mg/kg, Moderate) was 1 and the “Mean Number of Convulsions/Mouse, cumulative” value (mice; 100 mg/kg, Severe + Moderate, hydrochloride) was 0.23. For the same compound, the “Mean Number of Convulsions/Mouse” value (mice; 100 mg/kg, Severe, 120 min observation, hydrochloride) was 0.15, the “Total Number of convulsions” value (mice; 100 mg/kg, Severe, hydrochloride) was 2 and the “Mean Number of Convulsions/Mouse, cumulative” value (mice; 150 mg/kg, All, hydrochloride) was 71.00. For the same compound, the “Mean Number of Convulsions/Mouse” value (mice; 150 mg/kg, Mild, hydrochloride) was 6.23, the “Total Number of convulsions” value (mice; 150 mg/kg, Mild, hydrochloride) was 81 and the “Mean Number of Convulsions/Mouse” value (mice; [3]) was 8.69. For the same compound, the “Total Number of convulsions” value (mice; [3]) was 113, the “Mean Number of Convulsions/Mouse, cumulative” value (mice; 150 mg/kg, Severe + Moderate, hydrochloride) was 64.77 and the “Mean Number of Convulsions/Mouse” value (mice; [4]) was 56.08. The “Total Number of convulsions” value (mice; [4]) was 729, the “Mean Number of Convulsions/Mouse” value (CD-1 mice [2]; 75 mg/kg i.p. (as Bupropion HCl, HBr equimolar), range-finding study, N = 3/dose group) was 0 and the “Mean Intensity of Convulsions/Mouse % of Total: Mild” value (CD-1 mice [2]; [5]) was 0.0 % of Total. For the same compound, the “Mean Intensity of Convulsions/Mouse % of Total: Moderate” value (CD-1 mice [2]; [5]) was 33.3 % of Total, the “Mean Intensity of Convulsions/Mouse % of Total: Severe” value (CD-1 mice [2]; [5]) was 66.7 % of Total and the “Mean Number of Convulsions/Mouse” value (CD-1 mice [2]; [5]) was 0.2. For the same compound, the “numbers of mice that had convulsions in the dose group” value (from here on “numbers of mice that had convulsions”) (CD-1 mice [2]; [5]) was 2/13, the “numbers of mice that had convulsions” value (CD-1 mice [2]; 100 mg/kg i.p., range-finding study, N = 3/dose group) was 2/3 and the “Mean Number of Convulsions/Mouse” value (CD-1 mice [2]; 100 mg/kg i.p., range-finding study, N = 3/dose group, hydrochloride) was 1.0. For the same compound, the “Mean Number of Convulsions/Mouse” value (CD-1 mice [2]; 100 mg/kg i.p., second (main) study, N = 10/dose group, hydrochloride) was 0, the “numbers of mice that had convulsions” value (CD-1 mice [2]; 150 mg/kg i.p., pooled data N = 13/dose group) was 13/13 and the “Mean Intensity of Convulsions/Mouse % of Total: Mild” value (CD-1 mice [2]; [6]) was 8.8 % of Total. The “Mean Intensity of Convulsions/Mouse % of Total: Moderate” value (CD-1 mice [2]; [6]) was 12.2 % of Total, the “Mean Intensity of Convulsions/Mouse % of Total: Severe” value (CD-1 mice [2]; [6]) was 79.0 % of Total and the “Mean Number of Convulsions/Mouse” value (CD-1 mice [2]; [6]) was 71.0. The “numbers of mice that had convulsions” value (CD-1 mice [2]; 150 mg/kg i.p., range-finding study, N = 3/dose group) was 3/3, the “Mean Number of Convulsions/Mouse” value (CD-1 mice [2]; 150 mg/kg i.p., range-finding study, N = 3/dose group, hydrochloride) was 32.0 and the “numbers of mice that had convulsions” value (CD-1 mice [2]; 150 mg/kg i.p., second (main) study, N = 10/dose group) was 10/10. The “Mean Number of Convulsions/Mouse” value (CD-1 mice [2]; 150 mg/kg i.p., second (main) study, N = 10/dose group, hydrochloride) was 82.7, the “numbers of mice that had convulsions” value (CD-1 mice [2]; […] i.p., pooled data N = 13/dose group, hydrochloride) was 13/13 and the “numbers of mice that had convulsions” value (CD-1 mice [2]; […] i.p., range-finding study, N = 3/dose group) was 3/3. For the same compound, the “numbers of mice that had convulsions” value (CD-1 mice [2]; […] i.p., second (main) study, N = 10/dose group, hydrochloride) was 10/10 and the “threshold for tonic convulsions” value (CD-1 mice [2]; range finding study, i.p., hydrochloride) was 100 mg/kg.
With `Br.CC(NC(C)(C)C)C(=O)c1cccc(Cl)c1` (centres unmarked) [bupropion hydrobromide] the “Mean Number of Convulsions/Mouse, cumulative” value (mice; 100 mg/kg, All) was 0.77, the “duration of convulsive behavior, hydrobromide versus hydrochloride” value (CD-1 mice [1]; study pairs 1, 2 and 3) was “lasted longer than the hydrochloride-treated mouse” and the “seizure-like behavioural activity over time, second study pair” value (CD-1 mice [1]) was “still observing rearing and falling, forepaw running and turning in the hydrobromide-treated mouse at 60 minutes”. For the same compound, the “reduction in the number of convulsant mice versus HCl salt” value (CD-1 mice [2]; […] dose level, pooled data) was 15.4%.

— patent publication US7645802B2 (Biovail Laboratories International SRL., priority 2005, dated 2010)
